# Article doi:10.1101/2024.08.25.609621 (bioRxiv, 2024)
# pIC50: −log10 of the molar value. Values joined by “and” are separate entries in the source; they are usually repeats but may differ in a detail not shown here. Equal entries are not always repeated. Where two headings read alike, the source gives them in different places.
# Key:
# in vitro = conditions: human; for Papp A→B at 1 h / Papp B→A at 1 h: Caco-2
# Description: (§1) Caco-2 cell plates were obtained commercially and were maintained for 21 days at 37°C with 5% CO2. Cells were washed with Hank’s Balanced Salt Solution (HBSS) with 5 mM HEPES for 30 minutes before starting the experiment. Test compound solutions are prepared by diluting DMSO stock into HBSS buffer, resulting in a final DMSO concentration of 0.1%. Prior to the assay, cell monolayer integrity was verified by […] electrical resistance (TEER) to ensure that wells have resistance above the acceptance cut-off (1 kΩ). Transport experiments were initiated by adding test compounds to the apical (75 μl) or basal (250 μl) side. Transport plates were incubated at 37°C in a humidified incubator with 5% CO2. Samples were taken from the donor and acceptor compartments after one hour and analyzed by liquid chromatography with tandem mass spectrometry (LC/MS/MS) using an AB Sciex API 4000 instrument, coupled to a Shimadzu LC-20AD LC Pump system. Samples were separated using a Waters Atlantis T3 dC18 reverse phase HPLC column (20 mm × 2.1 mm) at a flow rate of 0.5 ml/min. The mobile phase consisted of 0.1% formic acid in acetonitrile (solvent A) and 0.1% formic acid in water (solvent B).
# (§2) Apparent permeability (Papp) values were calculated using the following equation: Papp=(dQ/dt)/A/C0 where dQ/dt is the initial rate of compound transport across the cell monolayer, A is the surface area of the filter membrane, and C0 is the initial concentration of the test compound, calculated for each direction using a four-point calibration curve by LC/MS/MS.
# (§3) Net flux ratio between the two directional transports was calculated by the following equation: Ratio=PappB-A/PappA-B where PappB-A and PappA-B represent the apparent permeability of compounds from the basal-to-apical and apical-to-basal side of the cellular monolayer, respectively. Recovery was calculated based on the compound concentration at the end of the experiment, compared to that at the beginning of the experiment, adjusted for volumes.
# Caco-2 cells = test: in vitro
# Description: as §1, §2, §3
# Microsomal stability = assay type: in vitro ADME, mouse; conditions: for half-life at 1 µM / microsomal CLint at 1 µM: pH 7.4
# Description: The assay was carried out in 96-well plates at 37°C. Reaction mixtures (25 μl) contained a final concentration of 1 μM compound, 0.5 mg/ml liver microsomes protein, and 1 mM NADPH and/or 1 mM UDPGA (with alamethicin) in 100 mM potassium phosphate (pH 7.4) with 3 mM MgCl2. After 0, 15, 30, and 60 minutes, 150 μl of quench solution (100% acetonitrile with 0.1% formic acid) with internal standard was transferred to each well. Reactions containing the same components except the NADPH were prepared as the negative control. Plates were sealed, vortexed, and centrifuged at 4°C for 15 minutes at 4000 rpm.
# The extent of metabolism was calculated as the disappearance of compounds, compared to the 0-min time incubation.
# Kinetic solubility = conditions: pH 7.4, aqueous buffer, kinetic from dmso stock
# human macrodomain Targ1 = target: T1, human macrodomain Targ1 (Homo sapiens, UniProt Q9Y530); test: HTRF peptide displacement assay, Targ1; assay type: binding
# T1 sequence (Q9Y530 with tags, fused parts or gaps): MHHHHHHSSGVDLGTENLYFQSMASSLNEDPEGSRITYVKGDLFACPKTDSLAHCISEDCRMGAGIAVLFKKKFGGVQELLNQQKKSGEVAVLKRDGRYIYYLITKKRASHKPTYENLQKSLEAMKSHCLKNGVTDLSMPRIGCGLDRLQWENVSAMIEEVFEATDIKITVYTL
# [1] = target: SARS-CoV-2 NSP3 macrodomain (Mac1), P43 crystal form (Severe acute respiratory syndrome coronavirus 2, UniProt P0DTD1); assay type: binding; conditions: for 1-BDC: PanDDA background density correction; for Total number of conformations: ligand conformations modeled in Mac1 crystal structure; for 2*(1-BDC) (%): occupancy estimate from PanDDA 1-BDC
# [2] = target: T2, human macrodomain MacroD2 (Homo sapiens, UniProt A1Z1Q3); test: HTRF peptide displacement assay, MacroD2; assay type: binding
# T2 sequence (A1Z1Q3 with tags, fused parts or gaps): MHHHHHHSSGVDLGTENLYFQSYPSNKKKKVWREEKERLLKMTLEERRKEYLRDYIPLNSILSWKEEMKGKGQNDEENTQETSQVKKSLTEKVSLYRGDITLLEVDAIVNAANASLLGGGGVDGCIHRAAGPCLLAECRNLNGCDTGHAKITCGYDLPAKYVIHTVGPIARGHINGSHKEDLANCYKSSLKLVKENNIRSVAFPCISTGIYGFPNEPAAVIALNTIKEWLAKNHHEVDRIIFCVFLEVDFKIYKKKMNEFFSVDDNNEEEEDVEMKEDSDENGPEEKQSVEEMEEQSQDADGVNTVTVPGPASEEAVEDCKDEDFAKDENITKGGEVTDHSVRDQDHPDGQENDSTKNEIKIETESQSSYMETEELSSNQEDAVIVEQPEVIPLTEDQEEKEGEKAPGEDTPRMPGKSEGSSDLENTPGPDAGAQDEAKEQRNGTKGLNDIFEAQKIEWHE
# [3] = target: SARS-CoV-2 NSP3 macrodomain (Mac1) (Severe acute respiratory syndrome coronavirus 2, UniProt P0DTD1); test: biochemical; assay type: binding
# [4] = Caco-2, Caco-2 ratio B-A/A-B, net flux ratio
# [5] = Caco-2, compound concentration 5
# [6] = mouse, microsomes, 1 μM compound, 0.5 mg/ml microsomal protein, read-out: Mouse microsome T1/2
# [7] = mouse microsomes, read-out: CLint (mouse)
# [8] = liver microsomes, mouse microsome stability, read-out: CLint (mouse) (µl/min/mg protein), mean
# [9] = dose-response, read-out: Human Targ1 HTRF assay: IC50
# [10] = liver microsomes, mouse microsomes, read-out: CLint (mouse) (µl/min/mg protein), mean
# [11] = dose-response, read-out: Human MacroD2 HTRF assay: IC50
# [12] = preliminary screen, compound at 200 μM, mean of 3-4 technical replicates, read-out: % competition in HTRF assay
# [13] = crystal soak 10 mM, P43 crystals
structure (smiles),measurement,setting,value
"O=C(Nc1ccc(C(=O)N[C@H]2c3cccc(O)c3C[C@H]2C(=O)O)cc1)NC1CC1 [AVI-92, reference compound]",Papp A→B at 1 h,in vitro,0.04 ×10⁻⁶ cm/s
same,Papp B→A at 1 h,in vitro,1.7 ×10⁻⁶ cm/s
same,efflux ratio at 1 h,in vitro; [4],40.7
same,efflux ratio at 1 h,"in vitro; Caco-2, Ratio (B-A/A-B), Caco-2, compound concentration 5",42.5
same,Recover Rate (%),Caco-2 cells; [5],91%
same,"CLint (mouse) (µl/min/mg protein), mean",Microsomal stability; mouse microsome stability,<11.6 µl/min/mg protein
same,"T1/2 (min), mean",Microsomal stability; mouse microsome stability,>120 min
same,half-life at 1 µM,Microsomal stability; [6],> 120 min
same,microsomal CLint at 1 µM,Microsomal stability; [7],< 11.6 µL/min/mg
same,solubility kinetic at […],Kinetic solubility,524 µM
"O=C1CCCN1Nc1ncnc2[nH]c3cc(F)ccc3c12 [AVI-219, reference compound]",Papp A→B at 1 h,in vitro,10.6 ×10⁻⁶ cm/s
same,Papp B→A at 1 h,in vitro,16.8 ×10⁻⁶ cm/s
same,efflux ratio at 1 h,in vitro; [4],1.6
same,Recover Rate (%),Caco-2 cells; [5],98%
same,microsomal CLint at 1 µM,Microsomal stability; [8],53.1 µL/min/mg
same,half-life at 1 µM,"Microsomal stability; liver microsomes, mouse microsome stability, read-out: T1/2 (min), mean",26.1 min
same,microsomal CLint at 1 µM,"Microsomal stability; mouse, microsomes",53.1 µL/min/mg
same,solubility kinetic at […],Kinetic solubility; phosphate buffered saline,127 µM
"CC(C)(O)[C@H]1CCCN1c1ncnc2[nH]ccc12 [AVI-607, 2-[(2R)-1-{7H-Pyrrolo[2,3-d]pyrimidin-4-yl}pyrrolidin-2-yl]propan-2-ol]",pIC50,human macrodomain Targ1; [9],< 3.00
same,binding to the human macrodomain Targ1,human macrodomain Targ1; in words,none
same,Papp A→B at 1 h,in vitro,22 ×10⁻⁶ cm/s
same,Papp B→A at 1 h,in vitro,15.7 ×10⁻⁶ cm/s
same,efflux ratio at 1 h,in vitro; [4],0.7
same,efflux ratio at 1 h,"in vitro; Caco-2, Ratio (B-A/A-B)",0.71
same,Recover Rate (%),"Caco-2 cells; human, Caco-2, 1 h",93%
same,microsomal CLint at 1 µM,Microsomal stability; [10],73 µL/min/mg
same,half-life at 1 µM,"Microsomal stability; mouse, microsomes",19 min
same,microsomal CLint at 1 µM,"Microsomal stability; mouse, microsomes",73 µL/min/mg
same,1-BDC,[1],0.44
same,"Pandda run, overall: Modeling comment","[1]; crystal soak, soak concentration 10 mM","High occupancy, use manual refinement"
same,"Pandda run, overall: Hit","[1]; crystal soak, soak concentration 10 mM, TRUE = ligand hit",TRUE
same,Total number of conformations,[1],1
same,2*(1-BDC) (%),[1],88%
same,X-ray crystallography: Binding site,[1]; site where the ligand is bound in the X-ray crystal structure,Adenosine
same,"PanDDA run, DMSO background map: 1-BDC",[1]; soak concentration 10 mM,0.42 and 0.44
same,"PanDDA run, DMSO background map: Hit",[1]; soak concentration 10 mM,TRUE
same,pIC50,[2]; [11],< 3.00
same,binding to the human macrodomain MacroD2,[2]; in words,none
same,Hill slope,"[3]; HTRF dose-response fit, Mac1",1.5
same,inhibition at 200 µM,"[3]; Single dose, concentration 200 μM, read-out: SARS CoV-2 macrodomain HTRF assay: Average % competition",100%
same,SARS CoV-2 macrodomain HTRF assay: Hillslope,[3]; dose-response fit,1.5
same,inhibition at 200 µM,[3]; [12],100%
same,solubility kinetic at […],Kinetic solubility; phosphate buffered saline,518 µM
CC(c1ccccc1)C(CO)Nc1ncnc2[nH]ccc12 (stereo not shown) [AVI-3669],pIC50,"human macrodomain Targ1; Human Targ1 HTRF assay, dose-response, read-out: IC50",< 3.00
same,binding to the human macrodomain Targ1,human macrodomain Targ1; in words,none
same,Papp A→B at 1 h,in vitro,19.4 ×10⁻⁶ cm/s
same,Papp B→A at 1 h,in vitro,14.5 ×10⁻⁶ cm/s
same,efflux ratio at 1 h,in vitro; [4],0.7
same,efflux ratio at 1 h,"in vitro; Caco-2, Ratio (B-A/A-B)",0.75
same,Recover Rate (%),"Caco-2 cells; human, Caco-2, 1 h",93%
same,microsomal CLint at 1 µM,Microsomal stability; [8],166 µL/min/mg
same,half-life at 1 µM,"Microsomal stability; mouse, microsomes",8.3 min
same,microsomal CLint at 1 µM,"Microsomal stability; mouse, microsomes",166 µL/min/mg
same,1-BDC,[1],0.14
same,X-ray crystal structure,[1]; X-ray crystal structure determined (TRUE),TRUE
same,"Pandda run, overall: Hit",[1]; [13],TRUE
same,"Pandda run, overall: Modeled",[1]; [13],TRUE
same,"PanDDA run, DMSO background map: 1-BDC",[1]; crystal soak 10 mM,0.14
same,"PanDDA run, DMSO background map: Hit",[1]; crystal soak 10 mM,TRUE
same,Total number of conformations,[1],1
same,2*(1-BDC) (%),[1],28%
same,Binding site,[1]; site of ligand in X-ray crystal structure,Adenosine
same,pIC50,"[2]; Human MacroD2 HTRF assay, dose-response, read-out: IC50",< 3.00
same,binding to the human macrodomain MacroD2,[2]; in words,none
same,Hill slope,"[3]; HTRF dose-response fit, Mac1",1.2
same,Hill slope,"[3]; SARS CoV-2 macrodomain HTRF assay, dose-response",1.2
same,inhibition at 200 µM,"[3]; Single dose, concentration 200 μM, read-out: Average % competition",98%
same,inhibition at 200 µM,[3]; [12],98%
same,solubility kinetic at […],Kinetic solubility; phosphate buffered saline,529 µM
C[C@H]1CCCN(c2ncnc3[nH]ccc23)[C@H]1CO [AVI-3716],pIC50,human macrodomain Targ1; [9],< 3.00
same,binding to the human macrodomain Targ1,human macrodomain Targ1; in words,none
same,Papp A→B at 1 h,in vitro,25.9 ×10⁻⁶ cm/s
same,Papp B→A at 1 h,in vitro,18.9 ×10⁻⁶ cm/s
same,Recover Rate (%),Caco-2 cells; [5],104%
same,microsomal CLint at 1 µM,Microsomal stability; [10],44.4 µL/min/mg
same,"Mouse microsome stability: T1/2 (min), mean",Microsomal stability; mouse microsomes,31.2 min
same,microsomal CLint at 1 µM,"Microsomal stability; mouse, microsomes",44.4 µL/min/mg
same,half-life at 1 µM,Microsomal stability; [6],31.2 min
same,pIC50,[2]; [11],< 3.00
same,binding to the human macrodomain MacroD2,[2]; in words,none
same,solubility kinetic at […],Kinetic solubility; phosphate buffered saline,523 µM
"Cc1c[nH]c2ncnc(NCC3(O)CCCCC3)c12 [AVI-3761, 1-(((5-methyl-7H-pyrrolo[2,3-d]pyrimidin-4-yl)amino)methyl)cyclohexan-1-ol]",pIC50,human macrodomain Targ1,< 3.00
same,binding to the human macrodomain Targ1,human macrodomain Targ1,none
same,Papp A→B at 1 h,in vitro,21.5 ×10⁻⁶ cm/s
same,Papp B→A at 1 h,in vitro,11.2 ×10⁻⁶ cm/s
same,Recover Rate (%),"Caco-2 cells; human, Caco-2, 1 h",86%
same,"T1/2 (min), mean",Microsomal stability; mouse microsome stability,7.49 min
same,half-life at 1 µM,Microsomal stability; [6],7.49 min
same,microsomal CLint at 1 µM,Microsomal stability; [7],185 µL/min/mg
same,pIC50,[2],< 3.00
same,binding to the human macrodomain MacroD2,[2],none
